The values that follow come from ChEMBL document CHEMBL1201862, “PubChem BioAssay data set” (2004).

Calls of active or inactive are those of the source.

Test [1] concerns the target Bifunctional protein GlmU (Mycobacterium tuberculosis, UniProt P9WMN3). Nature of the test: Inhibitors of Mycobacterial Glucosamine-1-phosphate acetyl transferase (GlmU). Secondary screen. Details: species or system Mycobacterium tuberculosis H37Rv.
Test [2] addresses Induced myeloid leukemia cell differentiation protein Mcl-1 (Homo sapiens, UniProt Q07820). It is filed as functional.
For test [3], the target named is T1, Neuropeptide Y receptor type 1 (Homo sapiens, UniProt P25929).
T1 sequence (P25929 whole entry): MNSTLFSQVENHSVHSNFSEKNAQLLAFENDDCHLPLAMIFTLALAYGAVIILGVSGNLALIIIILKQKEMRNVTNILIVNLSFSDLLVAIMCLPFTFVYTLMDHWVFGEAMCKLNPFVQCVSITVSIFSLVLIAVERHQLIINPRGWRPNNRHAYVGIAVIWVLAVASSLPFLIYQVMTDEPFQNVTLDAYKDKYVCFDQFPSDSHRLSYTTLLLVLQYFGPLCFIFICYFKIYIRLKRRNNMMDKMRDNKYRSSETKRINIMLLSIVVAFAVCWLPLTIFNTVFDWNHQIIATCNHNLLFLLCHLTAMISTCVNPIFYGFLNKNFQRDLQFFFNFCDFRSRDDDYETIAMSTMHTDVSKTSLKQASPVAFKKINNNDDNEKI
Put plainly: Fluorescence-based counterscreen for agonists of NPY-Y2: cell-based high-throughput dose response assay for agonists of NPY-Y1. It is filed as functional.

The nature of test [4]: CCR5-tropic HIV-1 fusion blockers – cell-based, CCR5-tropic Env, dose response (AID 2279). It is filed as functional.
A short description of test [5]: cytotoxicity toward Colo320 cells – cell-based, CellTiter-Glo luminescence, IC50, dose response (AID 1117334). Type of test: functional. The conditions noted are these: COLO 320. (In general: Cellular ATP, detected with luciferase, serves as a proxy for viable cell number.)
In test [6] the target is T2, Neuropeptide Y receptor type 2 (Homo sapiens, UniProt P49146).
T2 sequence (P49146 whole entry): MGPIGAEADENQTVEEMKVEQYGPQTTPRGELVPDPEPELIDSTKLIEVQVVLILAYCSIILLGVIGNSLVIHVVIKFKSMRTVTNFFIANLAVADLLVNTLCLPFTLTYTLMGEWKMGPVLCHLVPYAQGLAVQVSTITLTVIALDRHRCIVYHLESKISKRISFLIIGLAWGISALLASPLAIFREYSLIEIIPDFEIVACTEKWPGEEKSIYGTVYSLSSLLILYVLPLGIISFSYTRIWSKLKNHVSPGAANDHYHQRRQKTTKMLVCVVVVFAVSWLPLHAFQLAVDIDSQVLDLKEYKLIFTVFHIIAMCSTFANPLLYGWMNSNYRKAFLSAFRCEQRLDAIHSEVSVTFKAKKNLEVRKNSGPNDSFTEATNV
Nature of the test: Fluorescence-based cell-based high-throughput dose response assay for agonists of NPY-Y2. [Related pubchem assays: 1703 (Screening assay (CNGC inhibitors).), 1359 (Screening assay (NPY-Y2 potentiators or agonists).), 1304 (Screening assay (NPY-Y1 potentiators or agonists).), 1710 (Screening assay (NPY-Y2 agonists).), 1791 (Summary AID.)]. Type of test: functional.

In another test the target is Fatty acid synthase (Homo sapiens, UniProt P49327). Put plainly: inhibition of human FAS-TE enzyme activity – biochemical, kinetic fluorescence intensity, dose response (AID 624326).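 Note: rate of fluorescence rise from hydrolysis of a fluorogenic O-methyl fluorescein ester substrate.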 It is filed as functional.
Chain of Fatty acid synthase (P49327 whole entry): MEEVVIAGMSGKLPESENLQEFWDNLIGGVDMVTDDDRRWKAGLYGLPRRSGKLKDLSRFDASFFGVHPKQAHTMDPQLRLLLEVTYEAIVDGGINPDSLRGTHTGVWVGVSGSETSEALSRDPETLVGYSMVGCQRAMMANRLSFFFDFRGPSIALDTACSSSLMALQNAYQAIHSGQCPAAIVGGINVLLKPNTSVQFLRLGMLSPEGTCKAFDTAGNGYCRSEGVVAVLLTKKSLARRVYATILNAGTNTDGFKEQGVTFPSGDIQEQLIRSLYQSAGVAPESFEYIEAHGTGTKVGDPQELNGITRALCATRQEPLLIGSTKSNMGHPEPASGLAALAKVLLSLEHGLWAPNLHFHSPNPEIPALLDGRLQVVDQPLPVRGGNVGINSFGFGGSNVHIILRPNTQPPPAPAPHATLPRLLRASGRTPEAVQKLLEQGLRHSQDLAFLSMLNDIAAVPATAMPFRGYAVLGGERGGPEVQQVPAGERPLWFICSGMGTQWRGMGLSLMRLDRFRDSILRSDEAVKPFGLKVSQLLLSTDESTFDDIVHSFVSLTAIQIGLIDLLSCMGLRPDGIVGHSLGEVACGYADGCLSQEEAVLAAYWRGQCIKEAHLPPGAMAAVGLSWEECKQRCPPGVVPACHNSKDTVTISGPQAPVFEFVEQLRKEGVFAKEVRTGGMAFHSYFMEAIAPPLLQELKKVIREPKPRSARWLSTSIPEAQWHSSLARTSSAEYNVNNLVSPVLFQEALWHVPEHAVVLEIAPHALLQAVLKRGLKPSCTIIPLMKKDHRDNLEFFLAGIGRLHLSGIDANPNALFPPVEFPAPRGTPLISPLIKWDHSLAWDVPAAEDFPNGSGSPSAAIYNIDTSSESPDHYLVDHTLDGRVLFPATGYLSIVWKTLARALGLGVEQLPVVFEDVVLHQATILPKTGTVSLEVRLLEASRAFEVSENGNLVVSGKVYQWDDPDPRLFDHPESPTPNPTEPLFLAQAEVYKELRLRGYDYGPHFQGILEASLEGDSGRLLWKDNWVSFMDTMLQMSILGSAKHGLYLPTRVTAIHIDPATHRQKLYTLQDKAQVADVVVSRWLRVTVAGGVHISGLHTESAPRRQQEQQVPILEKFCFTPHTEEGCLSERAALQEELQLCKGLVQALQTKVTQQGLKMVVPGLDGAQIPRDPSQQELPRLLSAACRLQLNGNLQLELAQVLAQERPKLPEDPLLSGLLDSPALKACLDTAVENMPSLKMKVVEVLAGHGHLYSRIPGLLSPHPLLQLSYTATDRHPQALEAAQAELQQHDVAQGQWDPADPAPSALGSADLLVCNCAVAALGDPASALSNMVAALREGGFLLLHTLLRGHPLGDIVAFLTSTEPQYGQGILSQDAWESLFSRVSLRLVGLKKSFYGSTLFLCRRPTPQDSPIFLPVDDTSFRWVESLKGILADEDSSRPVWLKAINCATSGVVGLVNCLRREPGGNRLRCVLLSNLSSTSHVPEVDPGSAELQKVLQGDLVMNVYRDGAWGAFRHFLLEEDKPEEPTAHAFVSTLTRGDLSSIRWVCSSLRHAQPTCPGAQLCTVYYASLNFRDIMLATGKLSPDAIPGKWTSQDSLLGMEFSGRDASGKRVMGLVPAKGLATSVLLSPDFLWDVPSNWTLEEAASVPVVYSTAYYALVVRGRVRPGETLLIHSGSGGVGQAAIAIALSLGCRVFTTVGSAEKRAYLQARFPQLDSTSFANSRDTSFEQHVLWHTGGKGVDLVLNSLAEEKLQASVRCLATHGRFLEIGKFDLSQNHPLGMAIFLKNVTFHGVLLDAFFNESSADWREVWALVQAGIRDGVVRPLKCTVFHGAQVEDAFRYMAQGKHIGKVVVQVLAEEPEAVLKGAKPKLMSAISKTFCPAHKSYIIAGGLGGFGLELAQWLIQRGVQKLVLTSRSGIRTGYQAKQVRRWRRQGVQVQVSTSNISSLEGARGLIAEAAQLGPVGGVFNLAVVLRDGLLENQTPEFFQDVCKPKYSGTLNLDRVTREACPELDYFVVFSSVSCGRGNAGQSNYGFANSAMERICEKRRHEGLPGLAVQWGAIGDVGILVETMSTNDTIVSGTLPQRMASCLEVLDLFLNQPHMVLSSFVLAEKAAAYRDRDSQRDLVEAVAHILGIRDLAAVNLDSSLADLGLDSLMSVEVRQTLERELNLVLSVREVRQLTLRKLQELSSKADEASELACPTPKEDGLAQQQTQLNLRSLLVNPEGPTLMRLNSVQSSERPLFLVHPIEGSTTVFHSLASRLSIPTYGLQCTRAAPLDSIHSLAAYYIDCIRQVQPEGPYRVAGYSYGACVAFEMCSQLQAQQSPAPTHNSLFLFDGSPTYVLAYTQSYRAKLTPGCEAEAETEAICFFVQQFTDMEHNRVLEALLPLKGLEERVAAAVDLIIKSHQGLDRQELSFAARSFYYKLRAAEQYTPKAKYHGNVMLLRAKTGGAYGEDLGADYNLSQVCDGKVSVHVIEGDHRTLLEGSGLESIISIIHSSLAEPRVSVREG
For test [7], the target named is T3, Orexin/Hypocretin receptor type 1 (Homo sapiens, UniProt O43613).
T3 sequence (O43613 whole entry): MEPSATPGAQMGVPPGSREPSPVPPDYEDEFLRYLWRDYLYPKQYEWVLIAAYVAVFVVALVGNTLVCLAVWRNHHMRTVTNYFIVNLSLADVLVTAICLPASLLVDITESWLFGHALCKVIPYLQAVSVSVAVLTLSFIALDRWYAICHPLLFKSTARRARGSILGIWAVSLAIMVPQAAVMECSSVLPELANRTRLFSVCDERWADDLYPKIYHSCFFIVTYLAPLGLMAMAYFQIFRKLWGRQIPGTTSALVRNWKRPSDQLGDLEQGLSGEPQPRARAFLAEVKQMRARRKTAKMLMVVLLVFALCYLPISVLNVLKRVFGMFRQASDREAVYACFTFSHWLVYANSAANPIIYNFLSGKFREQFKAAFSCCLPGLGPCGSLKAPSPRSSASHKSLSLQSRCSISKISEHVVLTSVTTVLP
Put plainly: Fluorescence-based cell-based high throughput dose response assay for antagonists of the orexin 1 receptor (OX1R; HCRTR1). [Related pubchem assays (depositor defined):AID434989, AID435008, AID463079, AID485270, AID492963, AID492964, AID492965, AID493232, AID504717, AID504718]. It is filed as functional.

Test [8] addresses T4, Ubiquitin-conjugating enzyme E2 N (Homo sapiens, UniProt P61088).
T4 sequence (P61088 whole entry): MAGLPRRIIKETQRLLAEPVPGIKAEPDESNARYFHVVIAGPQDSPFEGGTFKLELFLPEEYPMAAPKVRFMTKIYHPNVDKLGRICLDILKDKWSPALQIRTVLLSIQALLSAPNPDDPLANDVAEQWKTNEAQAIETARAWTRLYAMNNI
It is filed as functional.

Another test concerns the target T5, Orexin receptor type 2 (Homo sapiens, UniProt O43614).
T5 sequence (O43614 whole entry): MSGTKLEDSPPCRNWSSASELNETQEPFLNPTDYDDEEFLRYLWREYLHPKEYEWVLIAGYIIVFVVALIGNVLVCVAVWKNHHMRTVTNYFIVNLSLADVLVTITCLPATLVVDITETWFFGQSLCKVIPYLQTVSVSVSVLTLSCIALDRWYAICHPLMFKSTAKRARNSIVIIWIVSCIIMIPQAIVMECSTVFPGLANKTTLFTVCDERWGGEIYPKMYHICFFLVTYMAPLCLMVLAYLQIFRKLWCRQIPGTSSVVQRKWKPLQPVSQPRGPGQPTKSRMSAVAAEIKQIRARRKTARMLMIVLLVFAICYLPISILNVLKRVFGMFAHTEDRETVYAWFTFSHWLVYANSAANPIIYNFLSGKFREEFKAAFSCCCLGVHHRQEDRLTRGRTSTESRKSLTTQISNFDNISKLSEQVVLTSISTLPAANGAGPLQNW
Nature of the test: Counterscreen assay for antagonists of the orexin 1 receptor (OX1R; HCRTR1): Fluorescence-based cell-based dose response assay for antagonists of the orexin 2 receptor (OX2R; HCRTR2), run by assay provider. It is filed as functional. On the technique in general: Counterscreens check selectivity or assay interference.

The next test can be described thus: cells. Type of test: functional, cell-based.

Chain of Bifunctional protein GlmU (P9WMN3 whole entry): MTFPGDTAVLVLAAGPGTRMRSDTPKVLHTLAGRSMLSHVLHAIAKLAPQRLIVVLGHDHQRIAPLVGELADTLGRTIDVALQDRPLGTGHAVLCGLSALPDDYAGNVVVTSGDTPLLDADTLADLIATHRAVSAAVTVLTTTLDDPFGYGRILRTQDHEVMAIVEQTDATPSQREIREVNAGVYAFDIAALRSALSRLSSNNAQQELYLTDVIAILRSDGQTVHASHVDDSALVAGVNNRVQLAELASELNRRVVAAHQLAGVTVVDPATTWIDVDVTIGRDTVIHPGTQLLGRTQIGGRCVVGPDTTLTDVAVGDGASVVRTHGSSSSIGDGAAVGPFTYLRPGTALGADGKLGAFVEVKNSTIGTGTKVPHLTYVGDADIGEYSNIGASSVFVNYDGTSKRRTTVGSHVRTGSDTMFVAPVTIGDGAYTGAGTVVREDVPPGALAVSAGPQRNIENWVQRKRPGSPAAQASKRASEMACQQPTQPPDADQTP
Chain of Induced myeloid leukemia cell differentiation protein Mcl-1 (Q07820 whole entry): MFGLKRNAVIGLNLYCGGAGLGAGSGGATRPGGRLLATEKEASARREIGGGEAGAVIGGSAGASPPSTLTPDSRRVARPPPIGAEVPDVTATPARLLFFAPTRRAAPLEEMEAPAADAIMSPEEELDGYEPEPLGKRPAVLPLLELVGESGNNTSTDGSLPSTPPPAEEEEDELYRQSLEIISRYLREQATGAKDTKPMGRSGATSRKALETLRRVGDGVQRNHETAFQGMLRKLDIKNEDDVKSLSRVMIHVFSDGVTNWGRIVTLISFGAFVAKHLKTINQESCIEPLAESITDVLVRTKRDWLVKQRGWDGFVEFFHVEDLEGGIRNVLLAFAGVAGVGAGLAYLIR

By IC50 is commonly meant the midpoint of a concentration-inhibition curve. With `O=[N+]([O-])c1ccc(Sc2cccc[n+]2[O-])c2nonc12`, in test [1], the IC50 was 72.6 µM (active).

For orientation: EC50 means the concentration that produces a half-maximal response. As for `Oc1c(Cl)cc(Cl)c(Cl)c1Cc1c(O)c(Cl)cc(Cl)c1Cl` [HEXACHLOROPHENE], the 50% inhibitory concentration (IC50) in test [2] is 14.8 µM (active); in test [4] it was 0.97 µM (active); in test [5], 0.0572 µM (active); at Fatty acid synthase, 5.68 µM (active). The EC50 in [3] was 9.8 µM (active); in [6], > 11.8 µM (not active).

With `Oc1ccc(NC(=S)N=Nc2c(O)[nH]c3ccccc23)cc1`, the IC50 in test [7] was 43.6 µM (inactive); in test [8], 0.763 µM (active); on Orexin receptor type 2, > 88.8 µM (inactive).

`CCCC(=O)NC(c1ccc(C(C)C)cc1)c1ccc2cccnc2c1O` (stereo unspecified): the EC50 in the test “cells” is listed as > 350 µM (not active).
